In patent US9908899B2 (BIOMARIN PHARMACEUTICAL INC., priority 2011, dated 2018):

Tests used:
C57BL/6J male mice = test: Long term memory for object recognition (ORM); format: in vivo; settings: s.c. 3, 10, 30 mg/kg
Experimental: C57BL/6J male mice were handled 1-2 min for 5 days and were habituated to the experimental apparatus 5 min a day for 4 consecutive days in the absence of objects. […] 24-h later mice were tested for memory retention (5 min) using the object recognition memory task (ORM), in which a familiar object was replaced with a novel one. All training and testing trials were videotaped and analyzed by individuals blind to the treatment condition and the genotype of subjects. A mouse was scored as exploring an object when its head was oriented toward the object within a distance of 1 cm or when the nose was touching the object. The relative exploration time was recorded and expressed by a discrimination index [DI=(tnovel−tfamiliar)/(tnovel+tfamiliar)×100].

HDAC2 = HDAC2 (Homo sapiens (Human), UniProt Q92769); test: HDAC activity inhibition assay, HDAC2; format: biochemical; settings: Table 1; 2 hours pre-incubation
Experimental: (§1) The HDAC activity inhibition assay was performed as follows to determine the ability of a test compound to inhibit HDAC enzymatic activity. […] Following pre-incubation, Fluor-de-Lys™ substrate (Enzo Life Sciences, Plymouth Meeting, Pa., BML-KI104-0050) was added to a final concentration of 10 μM and plates were further incubated for 30 minutes at room temperature. […] IC50 values were calculated by using a sigmoidal dose-response (variable slope) equation in GraphPad Prism® 5 for Windows (GraphPad Software, La Jolla, Calif.).

HDAC1 = HDAC1 (Homo sapiens (Human), UniProt Q13547); test: HDAC activity inhibition assay, HDAC1; format: biochemical; settings: Table 1; 2 hours pre-incubation
Experimental: as §1

HDAC3/NcoR2 = HDAC3/NcoR2 (Homo sapiens (Human), UniProt O15379); test: HDAC activity inhibition assay, HDAC3/NcoR2; format: biochemical; settings: Table 1; 2 hours pre-incubation
Experimental: as §1

[1] = test system: GM 15850(lymphoblastoid cells line) cells; test: In-cell deacetylase inhibition assay (DAC assay); format: cell-based; settings: Homo sapiens, GM15850; GM 15850 cells, 4 h incubation; read-out: 850 DAC (in-cell deacetylase inhibition IC50)
Experimental: Compound dilutions were made in 100% DMSO followed by parallel dilution in media with 2% DMSO. 10 μl of the compound dilutions were added to the cells to achieve the desired concentrations. The final concentration of DMSO in each well was 0.2%. The cells were incubated for 4 h at 37° C. with 5% CO2. After incubation, the cells were centrifuged down and the supernatant was removed. […] The reaction was stopped after 30 min incubation by addition of 50 μL developer (6 mg/mL trypsin in HDAC assay buffer). The reaction was allowed to develop for 30 min at room temperature and the fluorescence signal was detected using a fluorometer (Spectramax M2, Molecular Devices, Sunnyvale, Calif.) with excitation and emission wavelengths of 360 nm and 470 nm respectively. The data was fitted to a sigmoidal dose response equation with variable slope in GraphPad Prism 5.0 (GraphPad Software, La Jolla, Calif.) to determine IC50. Bottom and top of the curve were fixed to the average fluorescence response of control wells with no cells and cells but no compound respectively.

Sequence of HDAC1 (Q13547 whole entry): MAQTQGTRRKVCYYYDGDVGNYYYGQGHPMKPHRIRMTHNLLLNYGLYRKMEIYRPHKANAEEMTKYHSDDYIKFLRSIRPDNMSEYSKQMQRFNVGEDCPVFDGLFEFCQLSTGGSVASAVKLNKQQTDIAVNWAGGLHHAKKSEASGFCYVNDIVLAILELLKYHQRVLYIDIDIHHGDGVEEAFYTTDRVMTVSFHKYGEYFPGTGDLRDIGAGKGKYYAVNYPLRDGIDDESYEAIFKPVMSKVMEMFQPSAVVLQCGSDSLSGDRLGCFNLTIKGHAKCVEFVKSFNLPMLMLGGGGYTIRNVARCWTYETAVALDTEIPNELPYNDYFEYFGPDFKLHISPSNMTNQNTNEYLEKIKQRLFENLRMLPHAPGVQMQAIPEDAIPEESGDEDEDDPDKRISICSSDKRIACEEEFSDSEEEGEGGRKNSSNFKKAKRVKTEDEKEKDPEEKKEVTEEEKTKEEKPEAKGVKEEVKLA
Sequence of HDAC3/NcoR2 (O15379 whole entry): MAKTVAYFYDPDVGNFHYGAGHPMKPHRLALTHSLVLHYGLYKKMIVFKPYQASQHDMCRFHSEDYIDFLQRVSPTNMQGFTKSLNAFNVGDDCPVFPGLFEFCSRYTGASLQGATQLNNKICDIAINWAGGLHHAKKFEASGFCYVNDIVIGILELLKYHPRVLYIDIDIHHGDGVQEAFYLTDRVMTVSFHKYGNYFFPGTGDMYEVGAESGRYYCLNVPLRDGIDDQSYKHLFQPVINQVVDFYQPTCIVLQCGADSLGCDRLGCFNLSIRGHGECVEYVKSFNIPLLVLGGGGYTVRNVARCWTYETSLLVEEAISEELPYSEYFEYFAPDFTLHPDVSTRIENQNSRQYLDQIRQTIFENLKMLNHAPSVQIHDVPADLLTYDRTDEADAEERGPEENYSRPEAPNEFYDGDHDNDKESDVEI
Sequence of HDAC3/NcoR2 (Q9Y618 395-489 partner): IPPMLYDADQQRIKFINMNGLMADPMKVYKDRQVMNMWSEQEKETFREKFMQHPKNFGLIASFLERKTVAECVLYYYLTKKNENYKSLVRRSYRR
Sequence of HDAC2 (Q92769 whole entry): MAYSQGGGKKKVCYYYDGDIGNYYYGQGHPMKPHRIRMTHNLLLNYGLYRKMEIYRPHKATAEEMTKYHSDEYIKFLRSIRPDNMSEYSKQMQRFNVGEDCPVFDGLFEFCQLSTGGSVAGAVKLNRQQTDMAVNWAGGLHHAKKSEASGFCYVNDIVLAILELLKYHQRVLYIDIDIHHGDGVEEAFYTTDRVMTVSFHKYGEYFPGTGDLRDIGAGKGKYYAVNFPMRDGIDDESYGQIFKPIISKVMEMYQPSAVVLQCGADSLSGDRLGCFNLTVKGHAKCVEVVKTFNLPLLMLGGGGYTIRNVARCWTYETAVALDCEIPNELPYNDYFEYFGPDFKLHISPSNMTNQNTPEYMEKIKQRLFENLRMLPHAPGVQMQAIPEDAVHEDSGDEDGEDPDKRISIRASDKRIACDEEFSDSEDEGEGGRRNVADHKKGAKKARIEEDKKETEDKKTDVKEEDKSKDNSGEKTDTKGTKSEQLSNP

Compound	effect of dose on long-term memory for object recognition (C57BL/6J male mice)	IC50 (HDAC2)	IC50 (HDAC1)	IC50 (HDAC3/NcoR2)	IC50 [1]
Nc1cc(F)ccc1NC(=O)/C=C/c1cnn(C/C=C/c2ccccc2)c1 [D2, (E)-N-(2-amino-4-fluorophenyl)-3-(1-cinnamyl-1H-pyrazol-4-yl)acrylamide]	no effect of dose				
Cc1nn(C/C=C/c2ccccc2)c(C)c1/C=C/C(=O)Nc1ccccc1N [G2, (E)-N-(2-aminophenyl)-3-(1-cinnamyl-3,5-dimethyl-1H-pyrazol-4-yl)acrylamide]		1000 to 5000 nM	1000 to 5000 nM	< 1000 nM	10 to 20 µM
Cc1ccc(C(=O)NCCCCCC(=O)Nc2ccc(F)cc2N)cc1 [RGFP 136, reference compound]	Dose dependent effects				
